Test results taken from US20200354426A1 (MEDIMMUNE LIMITED, priority 2016, published 2020).
Marks after values point to notes of the source that are not given here. Numbered stars: 1 amine (or outer) side, 2 acyl side, 3 side chain; on linkers, the order of the positions; unused ones are H or OH. Side chains are listed from the residue outwards. Peptide text beside a SMILES is read from it. * marks the point of attachment. γGlu = O=C(O)[C@H](CCC(=O)[*:2])N[*:1]; Palmitoyl = CCCCCCCCCCCCCCCC(=O)*

What was measured:
[1] = test system: diet induced obesity (DIO) mouse model; experiment: Diet induced obesity (DIO) mouse model, study A; format: in vivo; conditions: for BeHy / FGF21 / HOMA / Hepatic TG / Plasma Cholesterol / Plasma NEFA / Plasma TG: day 14; for Glucose / Insulin: day 14, 4-hour fasting
Description: Female C57/B16JHsdOla (obtained from Harlan Laboratories. UK) were started on a high fat diet of D12492 (Research Diets, NJ, USA) and a chocolate confection, delicato ball (Delicata Bakverk, Sweden) at 9-11 weeks of age, and were maintained on the diet for 16 weeks prior to arrival to the animal facility, during a three week acclimation period and during drug treatment, caloric content of the two components of the diet is shown in Table 11. The mice were divided into 9 groups (n=5-6), and treatment was started at 29 weeks of age.
The body weight of the animals was monitored daily throughout the dosing period. At day 14, blood samples for the measurement of plasma glucose and insulin from conscious mice were obtained after a 4-hour fasting period. Mice were then anaesthetized using isoflurane and terminal blood was collected from the capillary bed behind the eye. The following parameters were measured: blood chemistry measurements of triglycerides, total cholesterol, non-esterified fatty acids (NEFA), beta-hydroxybutyrate and fibroblast growth factor 21 (FGF21) (Tables 14 and 15 below).

[2] = test system: overweight or obese subjects with type 2 diabetes mellitus; experiment: Phase 1/2 multiple-ascending-dose study of G933, Cohorts 1-6 (efficacy, PK, safety); format: in vivo, human
Description: Approximately 75 overweight or obese subjects with relatively well controlled type 2 diabetes mellitus (T2DM) are enrolled to participate in the study. The enrolled subjects meet the following inclusion and exclusion criteria.
Exclusion Criteria: • Any condition that would interfere with evaluations of the investigational product or interpretation of subject safety or study results. […] Patients who utilize benzodiazepines for chronic anxiety or sleep disorders may be permitted to enter the study; • History of severe allergy/hypersensitivity or ongoing clinically important allergy/hypersensitivity; • Whole blood or red blood cell donation, or any blood loss >500 mL during the 2 months prior to screening; • Received another new chemical entity (defined as a compound that has not been approved for marketing), or has participated in any other clinical study that included drug treatment within at least 30 days or 5 half-lives prior to the first administration of investigational product in this study (whichever is longer). The period of exclusion to begin 30 days or 5 half-lives of investigational product after the final dose, or after the last visit, whichever is longest.
Part A consists of 3 cohorts.
Part B consists of 1 cohort.
The initial dose is 100 μg.
Approximately 32 overweight or obese subjects with relatively well controlled type 2 diabetes mellitus (T2DM) are enrolled to participate in the study. The enrolled subjects meet the inclusion and exclusion criteria described in Example 5 with the following exceptions:
Inclusion Criteria: • Cohort 5 and 6 subjects must be willing and able to self-administer daily subcutaneous (SC) injections following an initial self-injection of placebo (or normal saline) during the screening period.
Exclusion Criteria: • Abnormal vital signs, after 10 minutes of supine rest, are defined as any of the following: (a) If systolic BP<90 mm Hg or ≥140 mm Hg; (b) Diastolic BP<50 mm Hg or ≥90 mm Hg; or (c) HR<45 or >85 bpm; • Unstable angina pectoris or stable angina pectoris classified higher than Canadian Cardiovascular Society class II or any previous medical history of myocardial infarction or stroke, or a history of a transient ischemic attack within the prior 12 months.
A randomized, double-blind, multiple-ascending dose study is performed. This study consists of 2 cohorts: cohort 5 and cohort 6. […] Cohorts 5 and 6 have approximately 32 subjects total and are run in parallel.
The study consists of an inpatient up-titration evaluation period beginning on Day 3 for both Cohorts 5 and 6 and an outpatient follow-up period. The first 4 days and the final day of dosing at 300 μg […].
Subjects are admitted to the clinic as described in Example 5 for Cohorts 1-4. […] Subjects have a second inpatient period for the initiation of the 300 μg dose ending on the fourth day at that dose followed by at-home self administration.
Additional time points include before commencing the 300 μg dose (Day 16 for Cohort 5 and Day 11 for Cohort 6) and at the end of dosing (Day 22 for Cohort 5 and Day 17 for Cohort 6). The MMT are performed as described in Example 5.

[3] = Cohort 4, after 41 days, p<0.001

**Q.** Which “BW day 14 (% change of vehicle mean)” value ([1]; 10 nmol/kg sc twice daily 14 days) does the source give for `CCCCCCCCCCCCCCCC(=O)N[C@@H](CCC(=O)NCCCC[C@H](NC(=O)[C@H](CCCCN)NC(=O)[C@H](CO)NC(=O)[C@H](Cc1ccc(O)cc1)NC(=O)[C@H](CC(=O)O)NC(=O)[C@H](CO)NC(=O)[C@@H](NC(=O)[C@H](Cc1ccccc1)NC(=O)[C@@H](NC(=O)CNC(=O)[C@H](CCC(N)=O)NC(=O)[C@H](CO)NC(=O)[C@@H](N)Cc1c[nH]cn1)[C@@H](C)O)[C@@H](C)O)C(=O)N[C@@H](CC(C)C)C(=O)N[C@@H](CC(=O)O)C(=O)N[C@@H](CO)C(=O)N[C@@H](CCC(=O)O)C(=O)N[C@@H](CCCNC(=N)N)C(=O)N[C@@H](C)C(=O)N[C@@H](CCCNC(=N)N)C(=O)N[C@@H](CC(=O)O)C(=O)N[C@@H](Cc1ccccc1)C(=O)N[C@H](C(=O)N[C@@H](C)C(=O)N[C@@H](Cc1c[nH]c2ccccc12)C(=O)N[C@@H](CC(C)C)C(=O)N[C@H](C(=O)N[C@@H](C)C(=O)NCC(=O)NCC(N)=O)C(C)C)C(C)C)C(=O)O` [Peptide G730] (H-HSQGTFTSDYSKK([γGlu-Palmitoyl])LDSERARDFVAWLVAGG-NH2; N-terminus assumed) here?
**A.** The value was −7.5%.

**Q.** What about the BeHy ([1]; 10 nmol/kg sc twice daily) of the same molecule?
**A.** Its BeHy is 428 µmol/L.

**Q.** And the FGF21 ([1]; 10 nmol/kg sc twice daily)?
**A.** Its FGF21 is 1963 pg/mL.

**Q.** What about the HOMA ([1]; 10 nmol/kg sc twice daily) of the same molecule?
**A.** The HOMA was 3.3.

**Q.** What about the “Hepatic TG” value ([1]; 10 nmol/kg sc twice daily) of the same molecule?
**A.** Its value is 9.0 * g TB/100 g tissue.

**Q.** What about the “Plasma Cholesterol” value ([1]; 10 nmol/kg sc twice daily) of the same molecule?
**A.** Its value is 3.10 mM.

**Q.** What about the “Plasma NEFA” value ([1]; 10 nmol/kg sc twice daily) of the same molecule?
**A.** The value was 0.28 Mm.

**Q.** What about the “Plasma TG” value ([1]; 10 nmol/kg sc twice daily) of the same molecule?
**A.** The value was 0.21 mM.

**Q.** And the Glucose ([1]; 10 nmol/kg sc twice daily)?
**A.** The Glucose was 7.2 mM.

**Q.** What about the Insulin ([1]; 10 nmol/kg sc twice daily) of the same molecule?
**A.** Its Insulin is 0.4 nM.

**Q.** And the “BW day 14 (% change of vehicle mean)” value ([1]; 20 nmol/kg sc twice daily 14 days)?
**A.** The value was −15.6%.

**Q.** What about the BeHy ([1]; 20 nmol/kg sc twice daily) of the same molecule?
**A.** The BeHy was 750 µmol/L.

**Q.** And the FGF21 ([1]; 20 nmol/kg sc twice daily)?
**A.** Its FGF21 is 2236 pg/mL.

**Q.** What about the HOMA ([1]; 20 nmol/kg sc twice daily) of the same molecule?
**A.** Its HOMA is 1.7.

**Q.** And the “Hepatic TG” value ([1]; 20 nmol/kg sc twice daily)?
**A.** The value was 17.7 g TB/100 g tissue.

**Q.** What about the “Plasma Cholesterol” value ([1]; 20 nmol/kg sc twice daily) of the same molecule?
**A.** Its value is 2.46 mM.

**Q.** And the “Plasma NEFA” value ([1]; 20 nmol/kg sc twice daily)?
**A.** Its value is 0.25 Mm.

**Q.** What about the “Plasma TG” value ([1]; 20 nmol/kg sc twice daily) of the same molecule?
**A.** Its value is 0.20 mM.

**Q.** What about the Glucose ([1]; 20 nmol/kg sc twice daily) of the same molecule?
**A.** Its Glucose is 6.7 mM.

**Q.** And the Insulin ([1]; 20 nmol/kg sc twice daily)?
**A.** Its Insulin is 0.2 nM.

**Q.** What about the BeHy ([1]; 50 nmol/kg sc twice daily) of the same molecule?
**A.** The BeHy was 1477 µmol/L.

**Q.** What about the FGF21 ([1]; 50 nmol/kg sc twice daily) of the same molecule?
**A.** The FGF21 was 5294 pg/mL.

**Q.** And the HOMA ([1]; 50 nmol/kg sc twice daily)?
**A.** The HOMA was 2.1.

**Q.** What about the “Hepatic TG” value ([1]; 50 nmol/kg sc twice daily) of the same molecule?
**A.** Its value is 28.1 g TB/100 g tissue.

**Q.** What about the “Plasma Cholesterol” value ([1]; 50 nmol/kg sc twice daily) of the same molecule?
**A.** Its value is 2.19 mM.

**Q.** What about the “Plasma NEFA” value ([1]; 50 nmol/kg sc twice daily) of the same molecule?
**A.** The value was 0.32 Mm.

**Q.** What about the “Plasma TG” value ([1]; 50 nmol/kg sc twice daily) of the same molecule?
**A.** The value was 0.23 mM.

**Q.** And the Glucose ([1]; 50 nmol/kg sc twice daily)?
**A.** Its Glucose is 5.9 mM.

**Q.** What about the Insulin ([1]; 50 nmol/kg sc twice daily) of the same molecule?
**A.** The Insulin was 0.3 nM.

**Q.** What about the “body weight over the 14 day dosing period” value ([1]; DIO mice, FIGS. 1-4) of the same molecule?
**A.** The value was “dose dependent and continuous weight loss”.

**Q.** What does the source list for “L-Histidyl-L-seryl-L-glutaminylglycyl-L-threonyl-L-phenylalanyl-L-threonyl-L-seryl-L-alpha-aspartyl-(N6-[N-(1-oxohexadecyl)-L-gamma-gutamyl])L-lysy-L-sery-L-alpha-glutamyl-L-tyrosyl-L-leucyl-L-alpha-aspartyl-L-seryl-L-alpha-glutamyl-L-arginyl-L-alanyl-L-arginyl-L-alpha-L-aspartyl-L-phenylalanyl-L-valyl-L-alanyl-L-tryptophyl-L-leucyl-L-alpha-glutamyl-L-alanylglycylglycine [Peptide G933]”?
**A.** Fasting Glucose (change) ([2]; Cohort 1, 100 ug, n = 6): -28.00 mg/dL; Weight (change) ([2]; Cohort 1, 100 ug, n = 6): -1.1 kg; Fasting Glucose (change) ([2]; Cohort 2, 150 ug, n = 6): -17.90 mg/dL; Weight (change) ([2]; Cohort 2, 150 ug, n = 6): -0.5 kg; weight differential ([2]; Cohort 3 (up to 200 μg, 15 days)): more than 2 kg; Fasting Glucose (change) ([2]; Cohort 3, 200 ug, n = 6): -43.20 mg/dL; Weight (change) ([2]; Cohort 3, 200 ug, n = 6): -2.4 kg; Fasting Glucose (change) ([2]; Cohort 4, 200 ug, n = 25): -32.62 mg/dL; Weight (change) ([2]; Cohort 4, 200 ug, n = 25): -2.11 kg; patients who lost at least 2% of their weight ([2]; Cohort 4, after 41 days): 84%; patients who lost at least 5 kg ([2]; Cohort 4, after 41 days): 44%; percent of weight lost ([2]; Cohort 4, after 41 days): about 4.18%; weight lost ([2]; Cohort 4, after 41 days): about 3.83 kg; HbA1c reduction ([2]; Cohort 4, after 41 days of treatment): 0.92%; percent weight loss difference between G933 and placebo [2, 3]: 2.47%; weight loss difference between G933 and placebo [2, 3]: 2.12 kg; mean reduction in glucose AUC from baseline (day 1) to day 41 ([2]; Cohort 4, up to 200 μg, 90% C.I. −47.1, −29.0): 38.5%; mean relative reduction in liver fat percentage from baseline versus placebo ([2]; Cohort 4, 95% CI 7.2, 33.9, p=0.004): 20.5%; reduction in liver volume compared to placebo ([2]; Cohort 4, (−0.24, −0.03), p=0.01): 0.14 L; mean HbA1c on day 42 ([2]; Cohort 4, baseline mean […]): 6.3%; glucose AUC reduction ([2]; Cohort 5 (up to 300 μg, 22 days), 90% C.I. −49.9, −33.5): 41.7%; Fasting Glucose (change) ([2]; Cohort 5, 300 ug, n = 12): -24.40 mg/dL; Weight (change) ([2]; Cohort 5, 300 ug, n = 12): -2.11 kg; weight loss difference versus placebo ([2]; Cohort 5, after 22 days): 2.11 kg; weight lost ([2]; Cohort 5, after 22 days): about 3.09 kg; glucose AUC reduction ([2]; Cohort 6 (up to 300 μg, 17 days), C.I. −43.3, −28.3): 35.8%; Fasting Glucose (change) ([2]; Cohort 6, 300 ug, n = 12): -36.94 mg/dL; Weight (change) ([2]; Cohort 6, 300 ug, n = 12): -1.88 kg; weight loss difference versus placebo ([2]; Cohort 6, after 17 days): 1.88 kg; weight lost ([2]; Cohort 6, after 17 days): about 2.23 kg; mixed-meal test glucose AUC reduction ([2]; Cohorts 1-3 (100-200 μg QD)): > 40%; weight loss ([2]; Cohorts 1-3, dose dependent trend): up to 2 kg
